Test results from paper PMC4728560 (Scientific Reports, 2016).

Key:
cBid+Bax = test: Control liposome permeabilization without Bcl-xL, cBid+Bax; type: biochemical; settings: 320 nM pH9 treated TCTP, 100 nM Bax, 20 nM cBid
Protocol: (A–E) in vitro reconstitution assay on liposome permeabilization. […] The treated Bcl-xL was then added to reactions containing ANTS-DPX liposomes, 100 nM Bax and 20 nM of either cBid (A,B) or cBidmt1(C,D) at pH 7. Liposome permeabilization was quantified by fluorescence after 5h incubation at 37 °C where 100% release was defined as the fluorescence change due to lipid solubilization with 1% Triton X-100. […] Error bars, std. dev. n = 3. To compare between the TCTP treated groups and the Control group statistically, two-way ANOVA test was performed for (A–D) and one-way ANOVA test was performed for (E). […] Colored asterisks above each data point indicate the statistical significance (*p < 0.05; **p < 0.01, no asterisks if p ≥ 0.05). A complete statistical analysis is provided in Supplementary Table 2–4. (F) Permeabilization assays of mitochondrial membrane by tBid and Bax assessing cytochrome c release. […] Cyto c extra-mito: in the supernatant, analysed by Western blot. […]
(§1) Figure 10 A,B) or cBid mt1 (Supplementary Figure 10 C,D) at pH 7 to quantify the activity of Bcl-xL inhibition of liposome permeablization. […]
the Control group (No TCTP) were analyzed through Dunnett's multiple comparisons test at each sample condition (Bcl-XL concentration) for statistical significance. […]
Statistical significance was analyzed through Dunnett's multiple comparisons test. […]

[1] = tested on: Bcl-xL inhibition of cBidmt1/Bax; test: In vitro reconstitution liposome permeabilization, cBidmt1/Bax with Bcl-xL; type: biochemical; settings: ANTS/DPX liposomes, 100 nM Bax, 20 nM cBidmt1, pre-incubation pH 9, 45 min, 37 °C, 5 h, pH 7
Text: This purified assay system measures direct interactions in which full-length untagged Bcl-xL inhibits permeabilization by binding full-length caspase 8 cleaved Bid (cBid) and/or full-length untagged Bax, thereby preventing Bax oligomerization in membranes. […] In these assays liposome permeabilization by activated Bax releases the entrapped fluorophore/quencher pair 8-aminonaphthalene-1,3,6-trisulfonic acid (ANTS)/p-xylene-bispyridinium (DPX), resulting in a measurable increase of fluorescence.
(A–E) in vitro reconstitution assay on liposome permeabilization. […] The treated Bcl-xL was then added to reactions containing ANTS-DPX liposomes, 100 nM Bax and 20 nM of either cBid (A,B) or cBidmt1(C,D) at pH 7. Liposome permeabilization was quantified by fluorescence after 5h incubation at 37 °C where 100% release was defined as the fluorescence change due to lipid solubilization with 1% Triton X-100. […] Error bars, std. dev. n = 3. […] Cyto c extra-mito: in the supernatant, analysed by Western blot. […]
as §1
then added to reactions containing ANTS-DPX liposomes, 100nM Bax and 20nM of either c Bid (A, C) or cBid mt1(B, D) at pH 7 and liposome permeabilization was quantified by fluorescence […]

TCTP: Translationally Controlled Tumor Protein (TCTP/tpt1), recombinant full-length
effect on cBid-Bax induced permeabilization not containing Bcl-xL (cBid+Bax): no effect
effect on Bcl-xL inhibition of cBidmt1/Bax-mediated liposome permeabilization [1]: enhanced Bcl-xL inhibition
